Results reported in patent publication US10597388B2, “Pyridazinone herbicides” (FMC CORPORATION, priority 2014, dated 2020).

What was measured:
Test in all cases: Test D controlled growth environment herbicide test, pre- and postemergence
Type in all cases: in vivo
[1] = tested on: mustard, wild (wild mustard, Sinapis arvensis)
Outline: (§1)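 Pre-emergence: seeds sown in silt loam soil were sprayed with compound in a non-phytotoxic solvent mix containing surfactant. Post-emergence: plants at 2 to 18 cm (1- to 4-leaf stage) in peat moss/vermiculite medium got the same formulation. Visual 0–100 rating versus controls after 14 to 21 d.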

[2] = tested on: field poppy (Papaver rhoeas)
Outline: as §1

[3] = tested on: lambsquarters (Chenopodium album)
Outline: as §1

[4] = tested on: barley, spring (spring barley, Hordeum vulgare)
Outline: as §1

[5] = tested on: oilseed rape (Brassica napus)
Outline: as §1

[6] = tested on: chamomile (scentless chamomile, Matricaria inodora)
Outline: as §1

[7] = tested on: bluegrass (annual bluegrass, Poa annua)
Outline: as §1

[8] = tested on: speedwell (bird's-eye speedwell, Veronica persica)
Outline: as §1

[9] = tested on: wheat, winter (winter wheat, Triticum aestivum)
Outline: as §1

[10] = tested on: wheat, spring (spring wheat, Triticum aestivum)
Outline: as §1

[11] = tested on: ryegrass, Italian (Italian ryegrass, Lolium multiflorum)
Outline: as §1

[12] = tested on: foxtail, green (green foxtail, Setaria viridis)
Outline: as §1

[13] = tested on: blackgrass (Alopecurus myosuroides)
Outline: as §1

[14] = Postemergence, 31 g ai/ha, scale 0 to 100 (0 no effect, 100 complete control)
[15] = Postemergence, 125 g ai/ha, visual rating on scale 0 (no effect) to 100 (complete control), 14 to 21 d
[16] = Postemergence, 250 g ai/ha, scale 0 to 100 (0 no effect, 100 complete control)
[17] = Preemergence, 125 g ai/ha, scale 0 to 100 (0 no effect, 100 complete control)
[18] = Preemergence, 250 g ai/ha, scale 0 to 100 (0 no effect, 100 complete control)
[19] = postemergence, 62 g ai/ha, scale 0 to 100, 0 no effect, 100 complete control
[20] = Preemergence, 62 g ai/ha, scale 0 to 100 (0 no effect, 100 complete control)

## Cc1cc(C)c2sc(C)c(-c3c(OC(=O)OCCCl)c(C)nn(C)c3=O)c2c1 [Compound 85]
[1]; [14]
  Mustard, Wild plant response rating: 10
[1]; [15]
  Plant response rating, Mustard, Wild: 30
[1]; [16]
  Plant response rating, Mustard, Wild: 80
[1]; Preemergence, 31 g ai/ha
  Plant response rating (scale of 0 to 100), Mustard, Wild: 25
[1]; Preemergence, 62 g ai/ha
  Plant response rating (scale of 0 to 100), Mustard, Wild: 25
[1]; [17]
  Plant response rating, Mustard, Wild: 35
[1]; [18]
  Plant response rating, Mustard, Wild: 40
[1]; [19]
  Plant response rating, Mustard, Wild: 25
[2]; [14]
  Field Poppy plant response rating: 70
[2]; [15]
  Plant response rating, Field Poppy: 80
[2]; [16]
  Plant response rating, Field Poppy: 95
[2]; [18]
  Plant response rating, Field Poppy: 95
[2]; [19]
  Plant response rating, Field Poppy: 90
[3]; [14]
  Lambsquarters plant response rating: 80
[3]; [15]
  Plant response rating, Lambsquarters: 95
[3]; [16]
  Plant response rating, Lambsquarters: 95
[3]; Preemergence, 31 g ai/ha
  Plant response rating (scale of 0 to 100), Lambsquarters: 25
[3]; Preemergence, 62 g ai/ha
  Plant response rating (scale of 0 to 100), Lambsquarters: 100
[3]; [17]
  Plant response rating, Lambsquarters: 100
[3]; [18]
  Plant response rating, Lambsquarters: 100
[3]; [19]
  Plant response rating, Lambsquarters: 85
[4]; [14]
  Barley, Spring plant response rating: 0
[4]; [15]
  Plant response rating, Barley, Spring: 15
[4]; [16]
  Plant response rating, Barley, Spring: 20
[4]; Preemergence, 31 g ai/ha
  Plant response rating (scale of 0 to 100), Barley, Spring: 0
[4]; [20]
  Plant response rating, Barley, Spring: 0
[4]; [17]
  Plant response rating, Barley, Spring: 0
[4]; [18]
  Plant response rating, Barley, Spring: 5
[4]; [19]
  Plant response rating, Barley, Spring: 0
[5]; [14]
  Oilseed Rape plant response rating: 65
[5]; [15]
  Plant response rating, Oilseed Rape: 70
[5]; [16]
  Plant response rating, Oilseed Rape: 80
[5]; Preemergence, 31 g ai/ha
  Plant response rating (scale of 0 to 100), Oilseed Rape: 0
[5]; Preemergence, 62 g ai/ha
  Plant response rating (scale of 0 to 100), Oilseed Rape: 0
[5]; [17]
  Plant response rating, Oilseed Rape: 20
[5]; [18]
  Plant response rating, Oilseed Rape: 30
[5]; [19]
  Plant response rating, Oilseed Rape: 70
[6]; [14]
  Chamomile plant response rating: 75
[6]; [15]
  Plant response rating, Chamomile: 90
[6]; [16]
  Plant response rating, Chamomile: 85
[6]; [19]
  Plant response rating, Chamomile: 75
[7]; [14]
  Bluegrass plant response rating: 10
[7]; [15]
  Plant response rating, Bluegrass: 25
[7]; [16]
  Plant response rating, Bluegrass: 40
[7]; Preemergence, 31 g ai/ha
  Plant response rating (scale of 0 to 100), Bluegrass: 40
[7]; [20]
  Plant response rating, Bluegrass: 60
[7]; [17]
  Plant response rating, Bluegrass: 65
[7]; [18]
  Plant response rating, Bluegrass: 75
[7]; [19]
  Plant response rating, Bluegrass: 20
[8]; [14]
  Speedwell plant response rating: 35
[8]; [15]
  Plant response rating, Speedwell: 80
[8]; [16]
  Plant response rating, Speedwell: 100
[8]; Preemergence, 31 g ai/ha
  Plant response rating (scale of 0 to 100), Speedwell: 50
[8]; Preemergence, 62 g ai/ha
  Plant response rating (scale of 0 to 100), Speedwell: 90
[8]; [17]
  Plant response rating, Speedwell: 100
[8]; [18]
  Plant response rating, Speedwell: 100
[8]; [19]
  Plant response rating, Speedwell: 70
[9]; [14]
  Wheat, Winter plant response rating: 0
[9]; [15]
  Plant response rating, Wheat, Winter: 0
[9]; [16]
  Plant response rating, Wheat, Winter: 10
[9]; Preemergence, 31 g ai/ha
  Plant response rating (scale of 0 to 100), Wheat, Winter: 0
[9]; Preemergence, 62 g ai/ha
  Plant response rating (scale of 0 to 100), Wheat, Winter: 0
[9]; [17]
  Plant response rating, Wheat, Winter: 5
[9]; [18]
  Plant response rating, Wheat, Winter: 15
[9]; [19]
  Plant response rating, Wheat, Winter: 0
[10]; [14]
  Wheat, Spring plant response rating: 0
[10]; [15]
  Plant response rating, Wheat, Spring: 15
[10]; [16]
  Plant response rating, Wheat, Spring: 20
[10]; Preemergence, 31 g ai/ha
  Plant response rating (scale of 0 to 100), Wheat, Spring: 0
[10]; Preemergence, 62 g ai/ha
  Plant response rating (scale of 0 to 100), Wheat, Spring: 0
[10]; [17]
  Plant response rating, Wheat, Spring: 15
[10]; [18]
  Plant response rating, Wheat, Spring: 40
[10]; [19]
  Plant response rating, Wheat, Spring: 0
[11]; [14]
  Ryegrass, Italian plant response rating: 80
[11]; [15]
  Plant response rating, Ryegrass, Italian: 85
[11]; [16]
  Plant response rating, Ryegrass, Italian: 90
[11]; Preemergence, 31 g ai/ha
  Plant response rating (scale of 0 to 100), Ryegrass, Italian: 55
[11]; Preemergence, 62 g ai/ha
  Plant response rating (scale of 0 to 100), Ryegrass, Italian: 80
[11]; [17]
  Plant response rating, Ryegrass, Italian: 85
[11]; [18]
  Plant response rating, Ryegrass, Italian: 90
[11]; [19]
  Plant response rating, Ryegrass, Italian: 85
[12]; [14]
  Foxtail, Green plant response rating: 75
[12]; [15]
  Plant response rating, Foxtail, Green: 85
[12]; [16]
  Plant response rating, Foxtail, Green: 85
[12]; Preemergence, 31 g ai/ha
  Plant response rating (scale of 0 to 100), Foxtail, Green: 25
[12]; Preemergence, 62 g ai/ha
  Plant response rating (scale of 0 to 100), Foxtail, Green: 55
[12]; [17]
  Plant response rating, Foxtail, Green: 100
[12]; [18]
  Plant response rating, Foxtail, Green: 100
[12]; [19]
  Plant response rating, Foxtail, Green: 80
[13]; [14]
  Blackgrass plant response rating: 75
[13]; [15]
  Plant response rating, Blackgrass: 90
[13]; [16]
  Plant response rating, Blackgrass: 90
[13]; Preemergence, 31 g ai/ha
  Plant response rating (scale of 0 to 100), Blackgrass: 75
[13]; [20]
  Plant response rating, Blackgrass: 80
[13]; [17]
  Plant response rating, Blackgrass: 85
[13]; [18]
  Plant response rating, Blackgrass: 85
[13]; [19]
  Plant response rating, Blackgrass: 80
